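Assay format: 96-well plates, 48-hour exposure. Abbreviation: GI50, concentration required for 50% inhibition of growth. TGI denotes the concentration required for complete inhibition of growth.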
Columns and labels:
Assay in all cases: NCI-60 cell line screen, 48 h
UO-31 renal = tested on: UO-31 renal
SF-295 CNS = tested on: SF-295 CNS
KM12 colon = tested on: KM12 colon
NCI-H226 lung = tested on: NCI-H226 lung
BT-549 breast = tested on: BT-549 breast
CAKI-1 renal = tested on: CAKI-1 renal
M14 melanoma = tested on: M14 melanoma
SN12C renal = tested on: SN12C renal
NCI-H460 lung = tested on: NCI-H460 lung
DU-145 prostate = tested on: DU-145 prostate
COLO 205 colon = tested on: COLO 205 colon
HOP-62 NSCLC = tested on: HOP-62 NSCLC
IGROV1 ovarian = tested on: IGROV1 ovarian
ACHN renal = tested on: ACHN renal
RPMI-8226 leukemia = tested on: RPMI-8226 leukemia
UACC-257 melanoma = tested on: UACC-257 melanoma
OVCAR-4 ovarian = tested on: OVCAR-4 ovarian
A549 NSCLC = tested on: A549 NSCLC
HT29 colon = tested on: HT29 colon
HCT-116 colon = tested on: HCT-116 colon
T-47D breast = tested on: T-47D breast
SK-MEL-2 melanoma = tested on: SK-MEL-2 melanoma
MDA-MB-435 = tested on: MDA-MB-435
NCI-H23 lung = tested on: NCI-H23 lung
SF-539 CNS = tested on: SF-539 CNS
RXF 393 renal = tested on: RXF 393 renal
SW-620 colon = tested on: SW-620 colon
HOP-92 NSCLC = tested on: HOP-92 NSCLC
MCF7 breast = tested on: MCF7 breast
OVCAR-3 ovarian = tested on: OVCAR-3 ovarian
PC-3 prostate = tested on: PC-3 prostate
786-0 renal = tested on: 786-0 renal
TK-10 renal = tested on: TK-10 renal
SK-MEL-28 melanoma = tested on: SK-MEL-28 melanoma
UACC-62 melanoma = tested on: UACC-62 melanoma
HS 578T breast = tested on: HS 578T breast
SF-268 CNS = tested on: SF-268 CNS
OVCAR-8 ovarian = tested on: OVCAR-8 ovarian
U251 CNS = tested on: U251 CNS
EKVX NSCLC = tested on: EKVX NSCLC
HCT-15 colon = tested on: HCT-15 colon
SK-OV-3 ovarian = tested on: SK-OV-3 ovarian
MDA-MB-231 breast = tested on: MDA-MB-231 breast
OVCAR-5 ovarian = tested on: OVCAR-5 ovarian
HCC-2998 colon = tested on: HCC-2998 colon
NCI/ADR-RES ovarian = tested on: NCI/ADR-RES ovarian
SNB-75 CNS = tested on: SNB-75 CNS
NCI-H522 lung = tested on: NCI-H522 lung
LOX IMVI melanoma = tested on: LOX IMVI melanoma
A498 renal = tested on: A498 renal
MALME-3M melanoma = tested on: MALME-3M melanoma
SNB-19 CNS = tested on: SNB-19 CNS
SK-MEL-5 melanoma = tested on: SK-MEL-5 melanoma

## CCCCCc1cc[n+](CC(=O)c2ccc([N+](=O)[O-])cc2)cc1
UO-31 renal
  GI50: 4.61 µM
  TGI: 43.6 µM
SF-295 CNS
  GI50: 6.52 µM
  TGI: 24.3 µM
KM12 colon
  GI50: 3.69 µM
  TGI: 14.1 µM
NCI-H226 lung
  GI50: 6.73 µM
  TGI: 24.4 µM
BT-549 breast
  GI50: 4.15 µM
  TGI: 20.5 µM
CAKI-1 renal
  GI50: 11.2 µM
  TGI: 34.8 µM
M14 melanoma
  GI50: 7.03 µM
  TGI: 22.7 µM
SN12C renal
  GI50: 9.63 µM
  TGI: > 100 µM
NCI-H460 lung
  GI50: 3.09 µM
  TGI: 11.6 µM
DU-145 prostate
  GI50: 8.72 µM
  TGI: 37.8 µM
COLO 205 colon
  GI50: 1.62 µM
  TGI: 2.97 µM
HOP-62 NSCLC
  GI50: 3.94 µM
  TGI: 28.3 µM
IGROV1 ovarian
  GI50: 10.1 µM
  TGI: 24.4 µM
ACHN renal
  GI50: 11 µM
  TGI: 45.1 µM
RPMI-8226 leukemia
  GI50: 3.18 µM
  TGI: 17 µM
UACC-257 melanoma
  GI50: 2.28 µM
  TGI: 7.08 µM
OVCAR-4 ovarian
  GI50: 2.53 µM
  TGI: 13.1 µM
A549 NSCLC
  GI50: 4.39 µM
  TGI: 15 µM
HT29 colon
  GI50: 2.39 µM
  TGI: 8.32 µM
HCT-116 colon
  GI50: 3.14 µM
  TGI: 11.4 µM
T-47D breast
  GI50: 6.02 µM
  TGI: 28.2 µM
SK-MEL-2 melanoma
  GI50: 2.7 µM
  TGI: 8.66 µM
MDA-MB-435
  GI50: 3.7 µM
  TGI: 14.6 µM
NCI-H23 lung
  GI50: 2.89 µM
  TGI: 11.9 µM
SF-539 CNS
  GI50: 20.3 µM
  TGI: 72.1 µM
RXF 393 renal
  GI50: 24.3 µM
  TGI: 94.4 µM
SW-620 colon
  GI50: 3.22 µM
  TGI: > 100 µM
HOP-92 NSCLC
  GI50: 2.2 µM
  TGI: 9.84 µM
MCF7 breast
  GI50: 3.37 µM
  TGI: 13.4 µM
OVCAR-3 ovarian
  GI50: 2.78 µM
  TGI: 10.4 µM
PC-3 prostate
  GI50: 4.14 µM
  TGI: 34.7 µM
786-0 renal
  GI50: 20.1 µM
  TGI: 74.2 µM
TK-10 renal
  GI50: 9.65 µM
  TGI: 33.7 µM
SK-MEL-28 melanoma
  GI50: 28.9 µM
  TGI: > 100 µM
UACC-62 melanoma
  GI50: 10.8 µM
  TGI: 24.1 µM
HS 578T breast
  GI50: 10.2 µM
  TGI: 36.5 µM
SF-268 CNS
  GI50: 19.4 µM
  TGI: > 100 µM
OVCAR-8 ovarian
  GI50: 5.85 µM
  TGI: 39.6 µM
U251 CNS
  GI50: 4.44 µM
  TGI: 28.2 µM
EKVX NSCLC
  GI50: 3.5 µM
  TGI: 17.5 µM
HCT-15 colon
  GI50: 13.6 µM
  TGI: 49.9 µM
SK-OV-3 ovarian
  GI50: 13.1 µM
  TGI: 46.3 µM
MDA-MB-231 breast
  GI50: 6.46 µM
  TGI: 35.7 µM
OVCAR-5 ovarian
  GI50: 22 µM
  TGI: 97.9 µM
HCC-2998 colon
  GI50: 4.94 µM
  TGI: 17.6 µM
NCI/ADR-RES ovarian
  GI50: 18.5 µM
  TGI: 52.2 µM
SNB-75 CNS
  GI50: 10.9 µM
  TGI: 26.6 µM
NCI-H522 lung
  GI50: 1.8 µM
  TGI: 8.53 µM
LOX IMVI melanoma
  GI50: 8.15 µM
  TGI: 22.1 µM
A498 renal
  GI50: 10.4 µM
  TGI: 24.6 µM
MALME-3M melanoma
  GI50: 2.15 µM
  TGI: 8 µM
SNB-19 CNS
  GI50: 8.01 µM
  TGI: > 100 µM
SK-MEL-5 melanoma
  GI50: 1.95 µM
  TGI: 4.56 µM
